In US8846665B2, “6,7-dihydro-[1,3,4]thiadiazolo-[3,2-a][1,3]diazepin derivative and pharmaceutical composition containing the same as neuromuscular blocker or skeletal muscle relaxant, and method for the preparation” (King Saud University, priority 2011, dated 2014):
“And” between values parts separate entries of the source, which are not always exact repeats. Identical values can stand only once. Like-named read-outs stand apart in the source and are kept apart here.

Legend:
[1] = test system: rat tibialis electrically-induced twitches; test: Neuromuscular blocking activity in rats (sciatic nerve-tibialis twitch); type: in vivo; settings: for Time for 100% Reversal / Time of onset of Reversal: after physostigmine; for ED50 (mmole/kg i.p.): dose producing 50% reduction of the rat tibialis twitch; for Duration of the Block / Time of 50% Block / Time of 90% Block / Time of onset of Block: rat tibialis twitches; for Effect of Physostigmine: reversal of block by physostigmine, single bolus
[2] = test system: 4-day old chicks; test: Neuromuscular blocking activity in chicks (head drop, type of paralysis); type: in vivo, chick
Method: Adult male Wistar rats (250 g) and 4-day old chicks (50 g) were used to conduct the neuromuscular blocking activity evaluation. They were housed in cages and kept at a temperature of 20±2° C. and a relative humidity of 55±5% with a light-dark cycle of 12 h. The animals were provided with Purina rodent's chow pellets supplied by Grain silos and Flour Mills Organization, Riyadh, Saudi Arabia and had both food and water ad libitum. The chicks were bought from the local market in Riyadh. Male Wistar rats (250 g) were randomly divided into various groups (N=4-8 animals). The animals were prepared following modifications of the reported method (Henning, R. Br. J. Pharmacol. 1993, 108, 717-720; Thesleff, S. et al, J. Pharmacol. Expt. Ther. 1954, 111, 99-118). Test drugs, standards or vehicles were administered intraperitoneal dissolved in dimethyl sulfoxide, or water as appropriate in various doses 1-100 mg/kg. In all experiments a control group was included and received intraperitoneal injections of the test compounds' vehicle. […] Also the dose that produced 90% of twitches depression was calculated. The response of the muscle to titanic stimulation was tested before administration of any drug and following 90% inhibition of the twitches.
Intraperitoneal administration of compounds of the formula 1 in single doses ranged from of 0.15-0.3 mmoles/kg, induced flaccid paralysis of the chicks within 1-15 minutes. The paralysis started with head movement and drop; then complete flaccid paralysis occurred. The onset of head drops were ranged from 15 sec-11 minutes whereas the flaccid paralysis ranged from 1-15 minutes following administration. Atracurium and Succinylcholine were used as positive controls. The mechanism of action of compounds of the formula 1 was similar but with more rapid onset of action than that of Atracurium; and almost similar to that of Succinylcholine. Representative example is shown in Example 4.
The effects of GS-53 and the standard drugs Succinylcholine and Atracurium were administered to 4-day old chicks to confirm the mode of the neuromuscular blockade (Buttle, G. et al, J. Pharm. Pharmacol. 1949, 1, 991-992; Thesleff, S. et al, J. Pharmacol. Expt. Ther. 1954, 111, 99-118; ELTahir, K. Guide to Drug Discovery, 2008, Riyadh, KSA). […] Intraperitoneal administration of GS-53 in single dose of 0.15 mmoles/kg, induced flaccid paralysis of the chicks within one minute. The paralysis started with head movement and drop; then complete flaccid paralysis occurred. The onset of head drop was 15 sec whereas the flaccid paralysis was one minute following administration. Atracurium and Succinylcholine were used as positive controls. The mechanism of action GS-53 seemed to be similar but with more rapid onset of action than that of Atracurium; and almost similar to that of Succinylcholine (Table 2).

[3] = Determination of the lethal dose (LD50); settings: male, mouse, in vivo, ip, male mice, intraperitoneal
Method: The LD50 values of compounds of formula 1 were performed. Compounds were given intraperitoneally in doses ranging from 0.1-5 mmole/kg. […] All behavioral changes and death during the observation periods were recorded. The percentage of death at each dose level was then calculated, and the LD50 values were obtained (Ghosh, M., Fundamentals of Experimental Pharmacology, Scientific Book Agency, Calcutta. 1984, pp 153-158, 187-189). The Therapeutic Index of each compound was calculated following the determination of the effective neuromuscular blocking dose. Representative example is shown in Example 5.
Male mice were divided into various groups and GS-53 was administered in various doses ranging from 0.1-5 mmole/kg, intraperitoneal. […] All behavioral changes and death during the observation periods were recorded.

[4] = literature classification, cited from earlier work; for Onset of action: following bolus i.v. administration
[5] = single dose of 0.15 mmoles/kg i.p.

SMILES | Time for 100% Reversal [1] | Time of onset of Reversal [1] | ED50 (mmole/kg i.p.) ([1]; i.p.) | Duration of the Block ([1]; i.p.) | Time of 50% Block ([1]; i.p.) | Time of 90% Block ([1]; i.p.) | Time of onset of Block ([1]; i.p.) | Effect of Physostigmine [1] | ED50 (mmole/kg i.p.) ([2]; i.p.) | Mechanism of action ([2]; i.p.) | Onset of head drop ([2]; i.p.) | Onset of muscle relaxation ([2]; i.p.) | Type of neuromuscular paralysis ([2]; i.p.) | Onset of action [4] | Duration [4] | further results
O=C1CCCN2N=C(c3ccc(Br)cc3)SC2=N1 [GS-53, (E)-2-(4-bromophenyl)-6,7-dihydro-[1,3,4]thiadiazolo[3,2-a][1,3]diazepin-8(5H)-one] | 6 ± 1.2 min | 1.0 min | 0.15 mmol/kg | 70 ± 12 min | 7 ± 0.6 min | 10 ± 3 min | 3 ± 0.9 min | completely reversed and 100% Reversal | 0.15 mmol/kg | Competitive | 0.25 ± 0.1 min | 1 ± 0.08 min | Flaccid |  |  | ED50 (mmole/kg i.p.), value in brackets in mg ([1]; i.p., rat tibialis twitch): 48.6 mg; Duration of action relative to Atracurium ([1]; rat, ratio of durations of block): 2.3 times; ED50 (mmole/kg i.p.), value in brackets in mg ([2]; i.p.): 48.6 mg/kg; Onset of flaccid paralysis [2, 5]: one; Onset of head drop [2, 5]: 0.25 min; LD50 at 72 h ([3]; observation 72 hours, read-out: LD50): 195 mg/kg; LD50 at 72 h ([3]; read-out: LD50 95% confidence limits): 185 to 205 mg/kg
COc1ccc(CC2c3cc(OC)c(OC)cc3CC[N+]2(C)CCC(=O)OCCCCCOC(=O)CC[N+]2(C)CCc3cc(OC)c(OC)cc3C2Cc2ccc(OC)c(OC)c2)cc1OC (centres unmarked) [Atracurium] | 3 ± 0.4 min | 2.0 min | 0.016 mmol/kg | 30 ± 6 min | 8 ± 0.2 min | 12 ± 1.3 min | 5 ± 0.8 min | 100% Reversal | 0.016 mmol/kg | Competitive | 5 ± 0.8 min | 10 ± 0.8 min | Flaccid |  |  | 
COc1cc2c(cc1OC)[C@H](c1cc(OC)c(OC)c(OC)c1)[N@@+](C)(CCCOC(=O)/C=C(\Cl)C(=O)OCCC[N@+]1(C)CCc3cc(OC)c(OC)cc3[C@H]1Cc1cc(OC)c(OC)c(OC)c1)CC2 [Gantacurium] |  |  |  |  |  |  |  |  |  |  |  |  |  | within a minute | 5 min | 
C[N+](C)(C)CCOC(=O)CCC(=O)OCC[N+](C)(C)C [Succinylcholine] |  |  | 0.03 mmol/kg | 20 ± 1.8 min | 3 ± 0.1 min | 5 ± 0.2 min | 2 ± 0.1 min | No Reversal | 0.03 mmol/kg | Depolarizing |  | 0.5 ± 0.02 min | Spastic | within a minute | 5 min | 
